Key:
BRD4-BD2 = target: T1, BRD4-BD2 (Homo sapiens, UniProt O60885); test: bromoKdELECT assay for binding affinity to BRD4-BD2; conditions: Table 7
T1 construct: made in house; host or cells: T7 phage grown in an E. coli host derived from BL21

[1] = target: T2, progesterone receptor ligand binding domain (LBD) (Homo sapiens, UniProt P06401); test: FP assay (PolarScreen Progesterone Receptor Competitor Assay) for binding to progesterone receptor LBD; conditions: GST-tagged PR LBD, Fluormone tracer, fluorescence polarization, 2 hours; Table 17
T2 construct: GST-tagged PR LBD, Fluormone tracer, and compound were mixed; purchased Life Technologies A15905 or a15906
T2 sequence (P06401 679-913 limits assumed): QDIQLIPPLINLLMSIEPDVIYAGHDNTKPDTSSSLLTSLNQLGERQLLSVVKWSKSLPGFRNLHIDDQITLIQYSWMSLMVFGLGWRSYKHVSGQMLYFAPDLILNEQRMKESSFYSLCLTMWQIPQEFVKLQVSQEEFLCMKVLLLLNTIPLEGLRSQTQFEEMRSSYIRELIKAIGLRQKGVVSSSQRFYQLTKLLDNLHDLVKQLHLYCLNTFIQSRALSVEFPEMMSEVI
Protocol: Compounds were tested using the PolarScreen™ Progesterone Receptor Competitor Assay Kit (Life Technologies Cat #A15905 or a15906), as per the manufacturer's instructions. Briefly, GST-tagged PR LBD, Fluormone tracer, and compound were mixed and incubated for 2 hours at room temperature in the dark. Following incubation, the plates were spun at 3000×g for 30 seconds, then sealed with an optical adhesive cover, and fluorescence polarization was measured using appropriate excitation and emission filters with an EnVision Plate Reader (Perkin Elmer). Compound concentration vs. mP value were plotted in Prism (GraphPad). A four-parameter non-linear regression curve fit was applied to dose-response data to determine the half-maximal inhibitory concentration (IC50) for each test compound.

Kd (BRD4-BD2): > 2.5 µM
IC50 [1]: < 0.05 µM
SMILES: Cc1sc2c(c1C)C(c1ccc(OCCOC3CCN(c4ncc(C(=O)N[C@H]5C(C)(C)[C@H](Oc6ccc(C#N)c(Cl)c6)C5(C)C)cn4)CC3)cc1)=N[C@@H](CC(=O)OC(C)(C)C)c1nnc(C)n1-2 [Compound I-235, tert-butyl 2-((S)-4-(4-(2-((1-(5-(((1r,3r)-3-(3-chloro-4-cyanophenoxy)-2,2,4,4-tetramethylcyclobutyl)carbamoyl)pyrimidin-2-yl)piperidin-4-yl)oxy)ethoxy)phenyl)-2,3,9-trimethyl-6H-thieno[3,2-f][1,2,4]triazolo[4,3-a][1,4]diazepin-6-yl)acetate]
